The results in this text go back to US12264146B2, “Rho kinase inhibitor, method for preparing same and uses thereof” (BEIJING INCREASE INNOVATIVE DRUG CO., LTD., priority 2018, dated 2025).

For one experiment, the system named is endothelin (ET-1). Briefly: Expression of endothelin (ET-1) in EA.Hy926 endothelial cells, detection kit. In kind it is cell-based, human. Particulars: EA.Hy926 cell supernatant, 48 h. The method, then: (§1) Commercially available cytokine kits were used to detect the effects of the compounds of the present application on vascular endothelium-derived contracting factor endothelin, vascular endothelium-derived relaxing factor endothelial nitric oxide synthase, nitric oxide, and prostacyclin factor. The detection was performed according to the kit instructions. When testing the effect of the compound of the present application on cytokines, a normal control group, a fasudil hydrochloride group, and high-, medium- and low-dose groups of the compounds of the present application were set up for testing. The fasudil hydrochloride used in this test example was purchased from Beijing Sihuan Pharmaceutical Co., Ltd., with the SFDA approval number of H20173349. The EA.Hy926 cells used in this test example were purchased from Suzhou Beina Chuanglian Biotechnology Co., Ltd.
EA.Hy926 cells were taken and inoculated in a 96-well plate at 5×10^4 cells/mL, 100 μL per well, and cultured adherently for 24 hours, then the test compound prepared in DMEM medium was added, and an equal volume of DMEM medium was added in the normal control group, then the cells were cultured at 37° C. for 48 hours, and then the cell supernatant was taken and placed in an EP tube, and centrifuged at 3000 r/min, 4° C. for 15 min. The resulting cell supernatant was transferred to a new EP tube, diluted twice with culture medium, and detected according to the instruction of the human endothelin detection kit (purchased from Wuhan Boster Biological Engineering Co., Ltd., batch number 59113731009), and the detection results were shown in Table 2.

Experiment [1] concerns endothelial nitric oxide synthase (eNOS). Briefly: Endothelial nitric oxide synthase (eNOS) in EA.Hy926 endothelial cells, detection kit. In kind it is cell-based. Particulars: EA.Hy926 cell supernatant, 24 h. The method, then: as §1
Detection conditions: EA.Hy926 cells were inoculated at 1×10^5 […] in a 96-well plate, 100 μL per well, and cultured adherently for 24 hours, then the test compound prepared with DMEM medium was added, the normal control group was added with an equal volume of DMEM medium, then the cells were cultured for 24 hours at 37° C., and then the cell supernatant was taken and placed in an EP tube, and centrifuged at 3000 r/min and 4° C. for 15 minutes, the resulting supernatant was transferred to a new EP tube, diluted 3 times, and detected according to the instruction of eNOs detection kit (purchased from Wuhan Elabscience Biotechnology Co., Ltd., Cat. No. AK0017OCT12013), and the detection results were shown in Table 4.

As for `C[C@@H]1CNCCCN1S(=O)(=O)c1cccc2cnccc12` [Compound R-YK1603, (R)-5-((2-methyl-1,4-diazacycloheptan-1-yl)sulfonyl)isoquinoline], in the experiment on endothelin (ET-1), the “expression of endothelin in endothelial cells: Detection result of test compound at low dose (0.4 μM)” value (shortened to “expression of endothelin … (0.4 μM)”) was determined as 242.75 ± 52.53 pg/mL, the “expression of endothelin in endothelial cells: Detection result of test compound at medium dose (2 μM)” value (“expression of endothelin … (2 μM)” below) stood at 252.72 ± 22.83 pg/mL and the “expression of endothelin in endothelial cells: Detection result of test compound at high dose (10 μM)” value (“expression of endothelin … (10 μM)” for short) was 242.03 ± 1.24 pg/mL. In experiment [1], the “expression of endothelial nitric oxide synthase in endothelial cells: Detection result of test compound at low dose (0.4 μM)” value came to 2928.44 ± 257.48 pg/mL, the “expression of endothelial nitric oxide synthase in endothelial cells: Detection result of test compound at medium dose (2 μM)” value was 2385.91 ± 387.57 pg/mL and the “expression of endothelial nitric oxide synthase in endothelial cells: Detection result of test compound at high dose (10 μM)” value was 2245.94 ± 213.65 pg/mL.
On to `C[C@@H]1CNCCCN1S(=O)(=O)c1cccc2c(O)ncc(F)c12` [Compound R-YK1604, (R)-4-fluoro-5-((2-methyl-1,4-diazacycloheptan-1-yl)sulfonyl)isoquinolin-1-ol], for which, in the experiment with endothelin (ET-1), the “expression of endothelin … (0.4 μM)” value stood at 232.75 ± 42.51 pg/mL, the “expression of endothelin … (2 μM)” value stood at 242.72 ± 20.81 pg/mL and the “expression of endothelin … (10 μM)” value turned out to be 230.03 ± 1.24 pg/mL. Also, in experiment [1], the “expression of endothelial nitric oxide synthase in endothelial cells: Detection result of test compound at low dose (0.4 μM)” value was 2932.05 ± 435.87 pg/mL, the “expression of endothelial nitric oxide synthase in endothelial cells: Detection result of test compound at medium dose (2 μM)” value came to 2397.93 ± 180.08 pg/mL and the “expression of endothelial nitric oxide synthase in endothelial cells: Detection result of test compound at high dose (10 μM)” value came to 2229.68 ± 63.98 pg/mL.
On to `COc1ncc(F)c2c(S(=O)(=O)N3CCCNC[C@H]3C)cccc12` [Compound R-YK1605, (R)-4-fluoro-1-methoxy-5-((2-methyl-1,4-diazacycloheptan-1-yl)sulfonyl)isoquinoline], for which, in the experiment with endothelin (ET-1), the “expression of endothelin … (0.4 μM)” value came out at 231.61 ± 9.70 pg/mL, the “expression of endothelin … (2 μM)” value was found to be 228.98 ± 11.41 pg/mL and the “expression of endothelin … (10 μM)” value is 259.53 ± 0.75 pg/mL. In addition, in experiment [1], the “expression of endothelial nitric oxide synthase in endothelial cells: Detection result of test compound at low dose (0.4 μM)” value stood at 2752.53 ± 779.12 pg/mL, the “expression of endothelial nitric oxide synthase in endothelial cells: Detection result of test compound at medium dose (2 μM)” value came out at 2261.58 ± 253.77 pg/mL and the “expression of endothelial nitric oxide synthase in endothelial cells: Detection result of test compound at high dose (10 μM)” value came out at 2105.70 ± 87.14 pg/mL.
As to `C[C@@H]1CNCCCN1S(=O)(=O)c1cccc2c(O)ncc(Cl)c12` [Compound R-YK1606, (R)-4-chloro-5-((2-methyl-1,4-diazacycloheptan-1-yl)sulfonyl)isoquinolin-1-ol], in the experiment with endothelin (ET-1), the “expression of endothelin … (0.4 μM)” value was found to be 231.75 ± 32.51 pg/mL, the “expression of endothelin … (2 μM)” value came to 242.62 ± 19.81 pg/mL and the “expression of endothelin … (10 μM)” value was found to be 231.03 ± 1.24 pg/mL. For the same compound, in experiment [1], the “expression of endothelial nitric oxide synthase in endothelial cells: Detection result of test compound at low dose (0.4 μM)” value is 2974.79 ± 361.75 pg/mL, the “expression of endothelial nitric oxide synthase in endothelial cells: Detection result of test compound at medium dose (2 μM)” value came to 2400.67 ± 226.73 pg/mL and the “expression of endothelial nitric oxide synthase in endothelial cells: Detection result of test compound at high dose (10 μM)” value came out at 2286.01 ± 95.04 pg/mL.
Consider `CCc1cnc(O)c2cccc(S(=O)(=O)N3CCCNC[C@H]3C)c12` [Compound R-YK1607, (R)-4-ethyl-5-((2-methyl-1,4-diazacycloheptan-1-yl)sulfonyl)isoquinolin-1-ol], for which, in the experiment on endothelin (ET-1), the “expression of endothelin … (0.4 μM)” value worked out at 248.20 ± 2.28 pg/mL, the “expression of endothelin … (2 μM)” value was found to be 259.34 ± 7.96 pg/mL and the “expression of endothelin … (10 μM)” value turned out to be 237.68 ± 3.34 pg/mL. In addition, in experiment [1], the “expression of endothelial nitric oxide synthase in endothelial cells: Detection result of test compound at low dose (0.4 μM)” value is 2426.66 ± 220.56 pg/mL, the “expression of endothelial nitric oxide synthase in endothelial cells: Detection result of test compound at medium dose (2 μM)” value was 2239.70 ± 249.84 pg/mL and the “expression of endothelial nitric oxide synthase in endothelial cells: Detection result of test compound at high dose (10 μM)” value stood at 2298.44 ± 265.33 pg/mL.
For the compound `O=S(=O)(c1cccc2cnccc12)N1CCCNC[C@H]1C1CC1` [Compound R-YK1608, (R)-5-((2-cyclopropyl-1,4-diazacycloheptan-1-yl)sulfonyl)isoquinoline], in the experiment with endothelin (ET-1), the “expression of endothelin … (0.4 μM)” value was 233.55 ± 0.12 pg/mL, the “expression of endothelin … (2 μM)” value was 229.98 ± 11.41 pg/mL and the “expression of endothelin … (10 μM)” value worked out at 239.23 ± 0.75 pg/mL. In experiment [1], the “expression of endothelial nitric oxide synthase in endothelial cells: Detection result of test compound at low dose (0.4 μM)” value is 2697.85 ± 284.81 pg/mL, the “expression of endothelial nitric oxide synthase in endothelial cells: Detection result of test compound at medium dose (2 μM)” value stood at 2344.00 ± 293.66 pg/mL and the “expression of endothelial nitric oxide synthase in endothelial cells: Detection result of test compound at high dose (10 μM)” value came to 2269.45 ± 134.54 pg/mL.
In the case of `CC(C)[C@@H]1CNCCCN1S(=O)(=O)c1cccc2c(O)nccc12` [Compound R-YK1609, (R)-5-((2-isopropyl-1,4-diazacycloheptan-1-yl)sulfonyl)isoquinolin-1-ol], in the experiment on endothelin (ET-1), the “expression of endothelin … (0.4 μM)” value stood at 222.75 ± 52.53 pg/mL, the “expression of endothelin … (2 μM)” value stood at 232.72 ± 22.83 pg/mL and the “expression of endothelin … (10 μM)” value stood at 242.03 ± 1.24 pg/mL. Also, in experiment [1], the “expression of endothelial nitric oxide synthase in endothelial cells: Detection result of test compound at low dose (0.4 μM)” value was found to be 2728.44 ± 257.58 pg/mL, the “expression of endothelial nitric oxide synthase in endothelial cells: Detection result of test compound at medium dose (2 μM)” value was found to be 2375.91 ± 287.28 pg/mL and the “expression of endothelial nitric oxide synthase in endothelial cells: Detection result of test compound at high dose (10 μM)” value worked out at 2235.87 ± 213.65 pg/mL.
Take `CC[C@@H]1CNCCCN1S(=O)(=O)c1cccc2c(OC)nccc12` [Compound R-YK1610, (R)-5-((2-ethyl-1,4-diazacycloheptan-1-yl)sulfonyl)-1-methoxyisoquinoline]: in the experiment on endothelin (ET-1), the “expression of endothelin … (0.4 μM)” value was determined as 259.20 ± 2.21 pg/mL, the “expression of endothelin … (2 μM)” value was determined as 260.34 ± 7.94 pg/mL and the “expression of endothelin … (10 μM)” value was 238.68 ± 3.34 pg/mL. Moreover, in experiment [1], the “expression of endothelial nitric oxide synthase in endothelial cells: Detection result of test compound at low dose (0.4 μM)” value stood at 2632.05 ± 235.87 pg/mL, the “expression of endothelial nitric oxide synthase in endothelial cells: Detection result of test compound at medium dose (2 μM)” value is 2397.93 ± 280.08 pg/mL and the “expression of endothelial nitric oxide synthase in endothelial cells: Detection result of test compound at high dose (10 μM)” value came out at 2329.68 ± 263.98 pg/mL.
As to `CCCC[C@@H]1CNCCCN1S(=O)(=O)c1cccc2c(O)nccc12` [Compound R-YK1611, (R)-5-((2-butyl-1,4-diazacycloheptan-1-yl)sulfonyl)isoquinolin-1-ol], in the experiment on endothelin (ET-1), the “expression of endothelin … (0.4 μM)” value was 238.20 ± 2.28 pg/mL, the “expression of endothelin … (2 μM)” value was determined as 249.34 ± 7.96 pg/mL and the “expression of endothelin … (10 μM)” value is 235.68 ± 3.34 pg/mL. Moreover, in experiment [1], the “expression of endothelial nitric oxide synthase in endothelial cells: Detection result of test compound at low dose (0.4 μM)” value came to 2652.53 ± 279.27 pg/mL, the “expression of endothelial nitric oxide synthase in endothelial cells: Detection result of test compound at medium dose (2 μM)” value came out at 2291.59 ± 253.56 pg/mL and the “expression of endothelial nitric oxide synthase in endothelial cells: Detection result of test compound at high dose (10 μM)” value was determined as 2195.70 ± 187.16 pg/mL.
As for `COc1nccc2c(S(=O)(=O)N3CCCNC[C@H]3CCC(C)C)cccc12` [Compound R-YK1612, (R)-5-((2-isopentyl-1,4-diazacycloheptan-1-yl)sulfonyl)-1-methoxyisoquinoline], in the experiment with endothelin (ET-1), the “expression of endothelin … (0.4 μM)” value is 232.61 ± 9.70 pg/mL, the “expression of endothelin … (2 μM)” value turned out to be 229.98 ± 11.41 pg/mL and the “expression of endothelin … (10 μM)” value amounted to 249.23 ± 0.75 pg/mL. Also, in experiment [1], the “expression of endothelial nitric oxide synthase in endothelial cells: Detection result of test compound at low dose (0.4 μM)” value was found to be 2776.58 ± 261.27 pg/mL, the “expression of endothelial nitric oxide synthase in endothelial cells: Detection result of test compound at medium dose (2 μM)” value stood at 2456.67 ± 226.85 pg/mL and the “expression of endothelial nitric oxide synthase in endothelial cells: Detection result of test compound at high dose (10 μM)” value was determined as 2286.671 ± 195.06 pg/mL.
